Data as given in patent US20070015735A1, “Water-dispersible carotenoids, including analogs and derivatives” (priority 2005, published 2007).

Format: physicochemical
Settings: 2 h

Aqueous dispersibility (concentration of the original supernatant): 2.85 mg/mL
Substance: β,ε-Carotenyl 3,3′-disuccinate sodium salt [compound 106]
